This assay relates to HepG2. Put plainly: Cytotoxicity against human HepG2 cells after 72 hrs by SRB assay. The assay is classed as functional, cell-based. The settings on record: HepG2, 72 h.

In ChEMBL document CHEMBL2380220, “Cytotoxic azaphilone alkaloids from Chaetomium globosum TY1” (Bioorg Med Chem Lett, 2013) one finds IC50 data, which are given here for 7 molecules.

The molecule `C/C=C(\C)C(=O)C1=C2C3=CN(CCCC(=O)O)C(/C=C/[C@@H](C)CC)=CC3=C(Cl)C(=O)[C@@]2(C)OC1=O` gave an IC50 of 1.7 µM.

The molecule `CC[C@H](C)/C=C/C1=CC2=C(Cl)C(=O)[C@@]3(C)OC4(O)C(C(=O)O[C@@H](C)[C@@H]4C)C3C2=CO1` (some centres not stated) gave an IC50 of over 100 µM.

As for `CC[C@H](C)/C=C/C1=CC2=C(Cl)C(=O)[C@@]3(C)OC(=O)C(C(=O)[C@H](C)[C@@H](C)O)=C3C2=CN1CCO`, the IC50 is 53.4 µM.

Molecule `C/C=C(\C)C(=O)C1=C2C3=CN(CCO)C(/C=C/[C@@H](C)CC)=CC3=C(Cl)C(=O)[C@@]2(C)OC1=O` yielded an IC50 of 19.8 µM.

The molecule `CC[C@H](C)/C=C/C1=CC2=C(Cl)C(=O)[C@@]3(C)OC(=O)C(C(=O)[C@H](C)[C@@H](C)O)=C3C2=CO1` yielded an IC50 of 35.3 µM.

Turning to `CC[C@@]1(O)C(=O)OCc2c1cc1n(c2=O)Cc2cc3ccccc3nc2-1` [CAMPTOTHECIN], the IC50 is 32.3 µM.

In the case of `C/C=C(\C)C(=O)C1=C2C3=COC(/C=C/[C@@H](C)CC)=CC3=C(Cl)C(=O)[C@@]2(C)OC1=O` [CHAETOVIRIDIN E], half-maximal inhibition (IC50) was put at 40.6 µM.
